# Reference: US10328061B2, “Treatment of Zika virus infections using alpha-glucosidase inhibitors” (FLORIDA STATE UNIVERSITY RESEARCH FOUNDATION, INC., priority 2016, dated 2019)
# Columns and labels:
# [1] = test system: Japanese encephalitis virus; conditions: compared with Dengue virus; cited from earlier work
# [2] = test system: Japanese encephalitis virus; conditions: mice given a lethal dose of Japanese encephalitis virus; cited from earlier work
# FSS-13025 strain of ZIKV = assay: Anti-ZIKV activity in SNB-19 cells, ZIKV-NS1 Western blot; format: cell-based, Zika virus; conditions: 100 μm, 500 μm and 1 mM, one hour prior to inoculation (MOI=1), harvested 24 hours post-infection
# Description: FIG. 1. Castanospermine as anti-ZIKV compound. Castanospermine was screened for antiviral activity against ZIKV infection. Glioblastoma SNB-19 cells were treated with castanospermine at the indicated concentrations one hour prior to inoculation with the FSS-13025 strain of ZIKV (at MOI=1). Cells were harvested 24 hours post-infection and analyzed by Western blot for ZIKV-NS1 or GAPDH.
# Cells of the glioblastoma SNB-19 cell line were maintained at 37° C. in 5% CO2 in […], 1× penicillin/streptomycin, and 10% fetal bovine serum (Invitrogen). SNB-19 cells were treated with castanospermine at increasing concentrations (100 μm, 500 μm, and 1 mM) one hour prior to inoculation with the FSS-13025 strain of ZIKV. Cells were harvested 24 hours post-infection and analyzed by Western blot for ZIKV-NS1 or GAPDH.
# Zika virus (FSS13025) [3] = assay: Zika viral load in serum of Ifnar1-/- mice (ZIKV NS1 ELISA); format: in vivo, Ifnar1-/- mice (C57BL/6 background); conditions: 100 mg/kg BW intraperitoneal, day 0 to day 3
# Source text: FIGS. 2A-2B. Zika viral load in serum in Ifnar1−/− mice. Serum was separated from the blood by centrifugation. Viral load (NS1) was estimated using the ZIKV NS1 ELISA Kit (BioFront Technologies, Fl, USA) as per the manual. Statistical analysis was done by unpaired t-test using GraphPad Prism software. *p<0.05 is considered as significant (FIG. 2B). With castanospermine treatment, there was 46% reduction in Zika virus load as estimated by NS1 protein in the serum (FIG. 2A).
# (§1) Ifnar1−/− mice (C57BL/6 background) were obtained (Muller U. et al. “Functional role of type I and type II interferons in antiviral defense”. Science. 1994; 264(5167):1918-21. Epub 1994/06/24). Out of 18 total Ifnar1−/− mice, two mice were dosed with castanospermine and media, 8 mice (male+female) were dosed with saline and ZIKV, and 8 mice were dosed with castanospermine and ZIKV on day-0. The drug was continued for three more days and animals were sacrificed on day-3. Body weight and water consumption were monitored daily.
# Zika virus (FSS13025) [4] = assay: Zika viral load in liver of Ifnar1-/- mice (ZIKV NS1 gene real time PCR); format: in vivo, Ifnar1-/- mice (C57BL/6 background); conditions: 100 mg/kg BW intraperitoneal, day 0 to day 3, ZIKV NS1 gene by real time PCR
# Description: FIGS. 3A-3B. Zika viral load in liver of Ifnar1−/− mice. After euthanizing the mice, liver tissue samples were stored in RNAase later buffer, and after homogenization in lysis buffer the total RNA was extracted using Rneasy column (Qiagen). cDNA was prepared using RT reaction. The expression level of the ZIKV NS1 gene was quantified by real time PCR using specific primers. Statistical analysis was done by unpaired t-test using GraphPad Prism software. *p<0.05 is considered as significant (FIG. 3B). There was a 68% decrease in the viral load in the liver with castanospermine treatment (FIG. 3A).
# as §1
# West Nile Virus = conditions: cited from earlier work
# [5] = by endogenous esterases; cited from earlier work
compound,measurement,setting,value
"CCCCCCCCCN1C[C@H](O)[C@@H](O)[C@H](O)[C@H]1CO [NN-DNJ, N-nonyl-deoxynojirimycin]",suppression of cell infection by Japanese encephalitis virus,[1],suppressed cell infection but to a lesser extent than with Dengue virus
same,mortality rate,[2],decreased mortality rate
"O[C@H]1[C@H](O)[C@@H](O)CN2CC[C@H](O)[C@H]12 [castanospermine, (1S,6S,7R,8aR)-Tetrahydroxyoctahydroindolizine]",inhibition of ZIKV infection (ZIKV protein NS1 expression),FSS-13025 strain of ZIKV,significantly inhibit ZIKV infection
same,reduction in Zika virus load as estimated by NS1 protein in the serum,Zika virus (FSS13025) [3],46%
same,decrease in the viral load in the liver,Zika virus (FSS13025) [4],68%
same,sensitivity of West Nile Virus,West Nile Virus,insensitive
"CCCC(=O)O[C@H]1CN2CC[C@H](O)[C@@H]2[C@@H](O)[C@@H]1O [celgosivir, 6-O-butanoyl castanospermine]",conversion to castanospermine,[5],rapidly converted
